Where “and” joins values, the source holds several entries; their conditions need not be identical. Identical values can stand only once. Counter-ions that a name gives are not always drawn. Like-named read-outs stand apart in the source and are kept apart here.
Experiments:
[1] = target: T1, recombinant human AChE (Homo sapiens, UniProt P22303)
[2] = target: T1, recombinant human AChE; test: biochemical
[3] = target: AChE in SH-SY5Y cells (Homo sapiens, UniProt P22303); test: cell-based
AChE in SH-SY5Y cells, sequence (P22303 32-614): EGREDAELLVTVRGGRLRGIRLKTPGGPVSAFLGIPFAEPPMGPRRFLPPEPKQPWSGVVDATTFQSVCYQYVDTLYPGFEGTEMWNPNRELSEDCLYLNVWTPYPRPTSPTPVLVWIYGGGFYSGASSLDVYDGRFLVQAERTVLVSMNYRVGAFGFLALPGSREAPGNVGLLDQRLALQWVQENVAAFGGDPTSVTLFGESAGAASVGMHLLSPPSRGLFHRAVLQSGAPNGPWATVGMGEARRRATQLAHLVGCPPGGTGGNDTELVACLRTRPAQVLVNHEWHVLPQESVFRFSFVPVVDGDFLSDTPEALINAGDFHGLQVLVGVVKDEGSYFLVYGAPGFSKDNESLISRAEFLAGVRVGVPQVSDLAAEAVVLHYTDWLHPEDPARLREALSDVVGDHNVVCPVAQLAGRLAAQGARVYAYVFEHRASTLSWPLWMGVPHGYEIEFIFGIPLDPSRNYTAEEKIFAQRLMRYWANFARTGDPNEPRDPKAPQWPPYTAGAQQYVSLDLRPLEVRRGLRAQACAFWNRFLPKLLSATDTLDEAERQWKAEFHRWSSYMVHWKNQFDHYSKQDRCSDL

T1 sequence (P22303 32-614): as above

| SMILES | CC-v2 (curve classes) [1] | Efficacy [1] | CC-v2 (curve classes) [2] | Efficacy [2] | IC50 ([2]; IC50 (uM)) | IC50 ([3]; IC50 (uM)) | CC-v2 (curve classes) [3] | IC50 ([3]; read-out: IC50) | IC50 [1] [µM] | IC50 ([2]; read-out: IC50) |
| --- | --- | --- | --- | --- | --- | --- | --- | --- | --- | --- |
| CCCCC(CC)CNC(=N)NC(=N)NCCCCCCNC(=N)NC(=N)NCC(CC)CCCC (stereo not drawn) [Alexidine dihydrochloride] | 4 | 11.253 | -1.1 | -96.324 | 17.4 µM | 43.6 µM | – | – | – | – |
| Cc1nc2ccccn2c(=O)c1CCN1CCC(C(=O)c2ccc(F)cc2)CC1 [Pirenperone] | 4 | 0 | -2.4 | -31.06 | 38.9 µM | 17.4 µM and 24.5 µM | -2.1 | – | – | – |
| Cc1ccc(CCn2c3c(c4cc(Cl)ccc42)CN(C)CC3)cn1 [Dorastine] | 4 | -6.925 | -2.4 | -32.475 | 38.9 µM | 34.7 µM and 30.9 µM | – | – | – | – |
| COCCCOc1ccnc(C[S+]([O-])c2nc3ccccc3[nH]2)c1C (stereo not drawn) [Rabeprazole sodium] | 1.1 | 92.667 | 4 | -15.052 | – | 63.1 µM and 70.7 µM | -2.1 and -2.2 | – | – | – |
| Cc1ccc(S(=O)(=O)Oc2ccc(N=Nc3ccc(-c4ccc(N=Nc5c(O)ccc6cc(S(=O)(=O)[O-])cc(S(=O)(=O)[O-])c56)c(C)c4)cc3C)cc2)cc1.[Na+].[Na+] [C.I. Acid Red 114] | 4 | 22.5 and 26.805 | -1.1 | – | – | – | 4 | – | – | – |
| CCOP(=O)(OCC)Oc1ccc([N+](=O)[O-])cc1 [Paraoxon] | -1.1 | – | -1.1 | – | – | – | -1.1 | – | – | – |
| COP(=O)(OC)O/C(=C\Cl)c1cc(Cl)c(Cl)cc1Cl [Z-Tetrachlorvinphos] | 4 | 0 | -2.4 | -30.752 | 71 µM | 63.3 µM and 79.6 µM | -2.2 | 44.8 µM | – | – |
| O=S(=O)([O-])SSS(=O)(=O)[O-].[K+].[K+] [Potassium tetrathionate] | -2.1 | -82.524 | -2.2 | -73.38 | – | – | -2.1 | 71 µM and 79.6 µM | 71 | 71 µM |
| CCOP(=S)(OCC)SCSCC [Phorate] | 4 | 0 | 4 | -23.652 | – | 63.3 µM and 71 µM | -2.1 | – | – | – |
| CCOC(=O)COc1ccc2c(C)c(CCN(CC)CC)c(=O)oc2c1Cl.Cl [Cloricromen hydrochloride] | 4 | -27.609 | -2.1 | -70.529 | – | – | -2.1 | 13.8 µM and 15.5 µM | – | 15.5 µM |
| COc1cc2nc(N3CCN(C(=O)C4CCCO4)CC3)nc(N)c2cc1OC (stereo not drawn) [Terazosin hydrochloride] | 4 | 0 | -2.2 | -49.646 | 38.9 µM | 30.9 µM and 27.5 µM | – | – | – | – |
| O=C(O)/C=C\C(=O)O.O=C(O)/C=C\C(=O)O.c1cc(CN2CCCCC2)cc(OCCCNc2nc3ccccc3s2)c1 [Zolantidine dimaleate] | 4 | 0 | -2.1 | -71.468 | – | – | -2.1 | 13.8 µM and 15.5 µM | – | 27.5 µM |
| CNP(=O)(OC)Oc1ccc(C(C)(C)C)cc1Cl (stereo not drawn) [Crufomate] | 4 | -16.11 | -2.2 | -70.92 | 79.6 µM | 71 µM and 39.9 µM and 63.3 µM | -2.1 | – | – | – |
| Nc1c(NC/C=C\COc2cc(CN3CCCCC3)ccn2)c(=O)c1=O [Pibutidine] | 4 | 0 | -2.2 | -32.846 | 15.1 µM | 13.5 µM and 15.1 µM | -2.1 | – | – | – |
| CCSCc1ccccc1OC(=O)NC [Ethiofencarb] | 4 | -27.523 | -1.1 | -87.381 | 20 µM | 10 µM and 17.8 µM | -1.1 and -2.1 | – | – | – |
| CCCCCCCCCCCCc1ccc(S(=O)(=O)O)cc1 [Dodecylbenzenesulfonic acid] | 4 | – | -2.1 and -1.1 | – | – | – | – | 79.6 µM and 89.4 µM and 71 µM | – | 63.3 µM and 56.4 µM and 39.9 µM |
| NC(=O)N=NC(N)=O [Azodicarbonamide] | 4 | 0 | – | – | 63.3 µM and 71.2 µM | 71 µM and 63.5 µM and 71.2 µM and 79.6 µM and 89.6 µM | – | – | – | – |
| Cc1nccn1CC1CCc2c(c3ccccc3n2C)C1=O (stereo not drawn) [Ondansetron] | 4 | 0 | 4 | -23.749 | – | 30.9 µM and 34.7 µM and 38.9 µM | – | – | – | – |
